# Source: patent US12703850B2, “Photostabilized compositions and a method for stabilizing photosensitive components” (Evonik Operations GmbH, priority 2022, dated 2026)
# Where a SMILES comes first, the peptide text is derived from it.
# Assays:
# Type in all cases: physicochemical
# [1] = Brown color index of solutions with 0.013 mM riboflavin exposed to day light, Example 2; details: for Color after exposure (in words): amino acid up to 32 mM, 7 days; for Brown color index in cell culture media (MEM) Day 7 / Brown color index in cell culture media (MEM) Day 0 / Brown color index in PBS Day 7 / Brown color index in PBS Day 0: with 0.013 mM riboflavin; for Brown color index in cell culture media (MEM) Day 7 / Brown color index in PBS Day 7: 7 days day light; for Brown colorization after exposure (in words): 2 mM, any type of aqueous solution used
# Protocol: Aqueous solutions of 2.5 mM L-Tryptophan (Trp) and 0.013 mM riboflavin were prepared in phosphate-buffered saline (D-PBS) as well as in Minimal Essential Medium (MEM). These solutions were used to dissolve the dipeptides L-alanyl-L-tyrosine dihydrate (Ala-Tyr) and glycyl-L-tyrosine dihydrate (Gly-Tyr) as well as the amino acids L-tyrosine (Tyr), L-alanine (Ala), and glycine (Gly) at several concentrations to create solvent mixtures. In example 1, the dipeptides were tested at concentrations of 0.5 mM, 2.5 mM and 10 mM and Tyr at a concentration of 0.5 mM. PBS and MEM as well as 2.5 mM Trp dissolved in PBS and MEM were used as controls. In example 2, the dipeptides and Tyr were tested at a concentration of 2 mM, Ala and Gly at 32 mM, and the solvent (PBS or MEM) was used as control (“solvent background”).
# (§1) The samples were exposed to electromagnetic radiation (day light) at room temperature for seven (example 2) as well as 14 days (example 1). A relative quantification of the brown color of the samples of example 1 was obtained by measuring the absorbance at 330 nm. The intensity of the brown color of samples of example 2 was determined by eye using a brown color index.
# Aqueous solutions of PBS or MEM containing 0.013 mM riboflavin show a week fluorescent yellow-green color. Exposure to electromagnetic radiation at room temperature for seven days results in a brown colorization of the MEM solution, while the yellow-green color in PBS solutions vanished.
# [2] = Brown color index of solutions without riboflavin exposed to day light, Example 2; details: for Color after exposure (in words): amino acid up to 32 mM, 7 days electromagnetic radiation; for Color after exposure (in words) / Brown color index in cell culture media (MEM) Day 7 / Brown color index in PBS Day 7: room temperature; for Brown color index in cell culture media (MEM) Day 7 / Brown color index in cell culture media (MEM) Day 0 / Brown color index in PBS Day 7 / Brown color index in PBS Day 0: without 0.013 mM riboflavin; for Brown color index in cell culture media (MEM) Day 7 / Brown color index in PBS Day 7: 7 days day light
# Protocol: […] These solutions were used to dissolve the dipeptides L-alanyl-L-tyrosine dihydrate (Ala-Tyr) and glycyl-L-tyrosine dihydrate (Gly-Tyr) as well as the amino acids L-tyrosine (Tyr), L-alanine (Ala), and glycine (Gly) at several concentrations to create solvent mixtures. In example 1, the dipeptides were tested at concentrations of 0.5 mM, 2.5 mM and 10 mM and Tyr at a concentration of 0.5 mM. PBS and MEM as well as 2.5 mM Trp dissolved in PBS and MEM were used as controls. In example 2, the dipeptides and Tyr were tested at a concentration of 2 mM, Ala and Gly at 32 mM, and the solvent (PBS or MEM) was used as control (“solvent background”).
# as §1
# Other control solutions of PBS and MEM without riboflavin were colorless at day 0.
# [3] = Brown colorization of tryptophan solutions exposed to day light (absorbance at 330 nm), Example 1; details: room temperature; for Effect on brown colorization compared with Tyr: 0.5 mM Tyr-dipeptide versus 0.5 mM Tyr; for Effect on brown colorization compared with Tyr / Effect on brown colorization of Trp solution: day light; for Effect on brown colorization of Trp solution: 14 days
# Protocol: Aqueous solutions of 2.5 mM L-Tryptophan (Trp) and 0.013 mM riboflavin were prepared in phosphate-buffered saline (D-PBS) as well as in Minimal Essential Medium (MEM). These solutions were used to dissolve the dipeptides L-alanyl-L-tyrosine dihydrate (Ala-Tyr) and glycyl-L-tyrosine dihydrate (Gly-Tyr) as well as the amino acids L-tyrosine (Tyr), L-alanine (Ala), and glycine (Gly) at several concentrations to create solvent mixtures. […] PBS and MEM as well as 2.5 mM Trp dissolved in PBS and MEM were used as controls.
# The intensity of the brown color was measured as absorbance difference at 330 nm.
# [4] = addition of 0.5 mM to 2.5 mM Trp in PBS or MEM, absorbance at 330 nm
# [5] = dipeptide concentrations of up to 10 mM, 2.5 mM Trp in PBS or MEM
# [6] = 7 days electromagnetic radiation, room temperature
Structure (SMILES),Brown color index in cell culture media (MEM) Day 7 ([2]; sample 32 mM),Brown color index in cell culture media (MEM) Day 0 ([2]; sample 32 mM),Brown color index in PBS Day 7 ([2]; sample 32 mM),Brown color index in PBS Day 0 ([2]; sample 32 mM),"Effect on brown colorization of Trp solution [3, 4]","Brown colorization after exposure (in words) [1, 6]","Brown color index in cell culture media (MEM) Day 7 ([1]; sample 2 mM, room temperature)",Brown color index in cell culture media (MEM) Day 0 ([1]; sample 2 mM),"Brown color index in PBS Day 7 ([1]; sample 2 mM, room temperature)",Brown color index in PBS Day 0 ([1]; sample 2 mM),other results
"Cc1cc2nc3c(=O)[nH]c(=O)nc-3n(C[C@H](O)[C@H](O)[C@H](O)CO)c2cc1C [riboflavin, (−)-Riboflavin]",,,,,,,,,,,"Intensity of brown color (brown color index, in words) ([1]; 0.013 mM riboflavin alone in MEM, 7 days electromagnetic radiation, room temperature): normal brown color; Yellow-green color after exposure ([1]; 0.013 mM riboflavin alone in PBS, 7 days electromagnetic radiation, room temperature): vanished"
"NCC(=O)O [Gly, glycine]",1 (week brown color),0 (no brown color),0 (no brown color),0 (no brown color),,,,,,,"Color after exposure (in words) ([2]; MEM without riboflavin): week brown; Color after exposure (in words) ([2]; PBS without riboflavin): stayed colorless; Color after exposure (in words) ([1]; MEM with 0.013 mM riboflavin): normal brown; Color after exposure (in words) ([1]; PBS with 0.013 mM riboflavin): stayed colorless; Brown color index in cell culture media (MEM) Day 7 ([1]; sample 32 mM, room temperature): 3; Brown color index in cell culture media (MEM) Day 0 ([1]; sample 32 mM): 0 (no brown color); Brown color index in PBS Day 7 ([1]; sample 32 mM, room temperature): 0 (no brown color); Brown color index in PBS Day 0 ([1]; sample 32 mM): 0 (no brown color)"
"NCC(=O)N[C@@H](Cc1ccc(O)cc1)C(=O)O.O.O [Gly-Tyr, glycyl-L-tyrosine dihydrate] (H-Gly-Tyr-OH)",1 (week brown color),0 (no brown color),0 (no brown color),0 (no brown color),reduce this colorization,normal brown color,3,0 (no brown color),3,0 (no brown color),"Effect on brown colorization compared with Tyr ([3]; 2.5 mM Trp in PBS or MEM): the effect is greater; Effect on brown colorization of Trp solution [3, 5]: further reduction or even completely prevented the change in color"
"C[C@H](N)C(=O)O [Ala, L-alanine]",1 (week brown color),0 (no brown color),0 (no brown color),0 (no brown color),,,,,,,"Color after exposure (in words) ([2]; MEM without riboflavin): week brown; Color after exposure (in words) ([2]; PBS without riboflavin): stayed colorless; Color after exposure (in words) ([1]; MEM with 0.013 mM riboflavin): normal brown; Color after exposure (in words) ([1]; PBS with 0.013 mM riboflavin): stayed colorless; Brown color index in cell culture media (MEM) Day 7 ([1]; sample 32 mM, room temperature): 3; Brown color index in cell culture media (MEM) Day 0 ([1]; sample 32 mM): 0 (no brown color); Brown color index in PBS Day 7 ([1]; sample 32 mM, room temperature): 0 (no brown color); Brown color index in PBS Day 0 ([1]; sample 32 mM): 0 (no brown color)"
"N[C@@H](Cc1c[nH]c2ccccc12)C(=O)O [Trp, L-Tryptophan]",,,,,,,,,,,Color change on exposure to electromagnetic radiation ([3]; 2.5 mM Trp alone in PBS or MEM): strong color change towards brown color
"N[C@@H](Cc1ccc(O)cc1)C(=O)O [Tyr, L-tyrosine]",,,,,reduce this colorization,strong brown,5 (strong brown color),0 (no brown color),5 (strong brown color),0 (no brown color),Brown color index in cell culture media (MEM) Day 7 ([2]; sample 2 mM): 2 (moderate brown color); Brown color index in cell culture media (MEM) Day 0 ([2]; sample 2 mM): 0 (no brown color); Brown color index in PBS Day 7 ([2]; sample 2 mM): 0 (no brown color); Brown color index in PBS Day 0 ([2]; sample 2 mM): 0 (no brown color)
"C[C@H](N)C(=O)N[C@@H](Cc1ccc(O)cc1)C(=O)O.O.O [Ala-Tyr, L-alanyl-L-tyrosine dihydrate] (H-Ala-Tyr-OH)",1 (week brown color),0 (no brown color),0 (no brown color),0 (no brown color),reduce this colorization,normal brown color,3,0 (no brown color),3,0 (no brown color),"Effect on brown colorization compared with Tyr ([3]; 2.5 mM Trp in PBS or MEM): the effect is greater; Effect on brown colorization of Trp solution [3, 5]: further reduction or even completely prevented the change in color"
